Data on 1 compound can be found in article PMC8760490, “Discovery of novel furanylbenzamide inhibitors that target oncogenic tyrosine phosphatase SHP2 in leukemia cells” (The Journal of Biological Chemistry, 2021).

Test [1] relates to patient-derived AML cells. Nature of the test: Viability of patient-derived AML cells. The class given is cell-based, human. The settings on record: 10 μM; 2, 4 or 6 days in culture. The text has this:
Because SHP2 activity is critical for ERK activation, we used phospho-ERK1/2 (p-ERK1/2) as a more direct readout of SHP2 inhibitor efficacy. […] This p-ERK rebound in MOLM-13 cells treated with RMC-4550 is reminiscent of previously reported data from human hepatoma Hep3B cells treated with SHP099 ([34]). We also tested the effects of SBI-4668 or RMC-4550 on two patient-derived AML samples (Fig. 4F).
Patient-derived AML cells were obtained from Carol Burian and Dr James Mason (Scripps MD Anderson Center) under approved Institutional Review Board protocol 13-6180. […] Final peripheral blood mononuclear cells were resuspended in Bambanker serum-free freezing medium (Wako Pure Chemical Industries, Ltd) and stored frozen before cell viability was assessed as described later.
Viability of AML and esophageal carcinoma cells was assessed using the ATP-depletion assay CellTiter-Glo (Promega). Cells were harvested at 1 × 10^6/ml to 2 × 10^6 cells/ml with cell numbers determined by trypan blue using the Countess Cell counter (Thermo Scientific) and resuspended in culture media. […] Luminescence was read on a Tecan Spark Multimode Microplate Reader, and data were analyzed using GraphPad Prism software.

A further test has as its target T1, SHP2-E76K (Homo sapiens, UniProt Q06124, E76K).
T1 construct: Recombinant human full-length SHP2 (1–594) WT and E76K mutants; made in house
T1 sequence (Q06124 1-593 E76K): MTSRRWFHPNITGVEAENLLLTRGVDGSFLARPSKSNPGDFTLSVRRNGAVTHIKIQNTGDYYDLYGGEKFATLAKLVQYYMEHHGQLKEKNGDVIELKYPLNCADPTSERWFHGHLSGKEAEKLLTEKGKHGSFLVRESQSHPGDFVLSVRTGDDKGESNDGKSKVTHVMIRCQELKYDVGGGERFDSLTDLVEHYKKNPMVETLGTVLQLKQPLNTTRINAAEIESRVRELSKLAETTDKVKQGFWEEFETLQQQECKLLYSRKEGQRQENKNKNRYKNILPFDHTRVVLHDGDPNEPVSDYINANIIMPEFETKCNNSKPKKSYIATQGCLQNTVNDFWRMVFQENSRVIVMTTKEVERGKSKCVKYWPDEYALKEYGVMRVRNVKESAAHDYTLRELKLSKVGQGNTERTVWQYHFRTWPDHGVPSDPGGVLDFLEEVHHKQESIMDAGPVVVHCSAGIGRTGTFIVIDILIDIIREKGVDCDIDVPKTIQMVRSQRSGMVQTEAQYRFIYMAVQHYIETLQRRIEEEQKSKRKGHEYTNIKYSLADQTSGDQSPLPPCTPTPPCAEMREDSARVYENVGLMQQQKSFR
Nature of the test: Michaelis–Menten kinetics and mode of inhibition. The format is biochemical. The text has this:
We previously reported furanylsalicylic acids as potent and selective inhibitors of the Yersinia tyrosine phosphatase YopH ([37], [38]). […] Thus, we tested whether replacement of the neutral 2-hydroxybenzamide moiety with the negatively charged salicylate would be beneficial for the potency of this scaffold against SHP2. […] To corroborate this postulate, we subjected SBI-4668 to Michaelis–Menten kinetic studies with SHP2-E76K to determine its mode of inhibition (Fig. 3, A and B). Using nonlinear regression, initial rates at various inhibitor and substrate concentrations were fitted to the Michaelis–Menten equations for competitive, noncompetitive, uncompetitive, and mixed inhibitions. Fitting models were then compared using Akaike's Information Criterion (AIC), and inhibition mode probabilities were calculated from the differences between the corresponding second-order corrected AIC scores as previously described ([38], [39]).
SBI-4668 was tested with SHP2-E76K using a similar assay format as described previously. SBI-4668 or vehicle (DMSO) was spotted in triplicate into a black Greiner FLUOTRAC 200 384-well microplate (catalog no.: #781076; Greiner) using an Echo 555 Liquid Handler (Labcyte, Inc). […] Fluorescence intensity was measured in kinetic mode as described previously. The initial rates were determined from the linear progression curves of each SHP2-E76K reaction. […]

Each structure is given as a SMILES string.

For orientation: Ki means a measure of affinity in units of concentration, obtained from inhibition or displacement. On to `O=C(Nc1ccccc1)c1cc(-c2ccc(/C=C3\Sc4ccccc4C3=O)o2)ccc1O` [SBI-4668, (Z)-2-Hydroxy-5-(5-((3-oxobenzo[b]thiophen-2(3H)-ylidene)methyl)furan-2-yl)-N-phenylbenzamide], for which the “growth of two patient-derived AML samples” value in test [1] is on record as “inhibited the growth of both AML patient samples”. Also, on SHP2-E76K (AIC model comparison), the mode of inhibition entry is “either a noncompetitive or a mixed inhibition mechanism”. The Ki on SHP2-E76K (DiFMUP, read-out: inhibition constant (Ki) for noncompetitive inhibition) is 1800 nM.
